Reference: ChEMBL document CHEMBL5532675, “Discovery of 4-Ethoxy-6-chloro-5-azaindazoles as Novel PDE4 Inhibitors for the Treatment of Alcohol Use Disorder and Alcoholic Liver Diseases” (J Med Chem, 2024)
Calls of active or inactive are those of the source. No cut-off for these calls is given here.

Tests used:
[1] = system: Mus musculus; assay: Protection against alcoholic liver disease in NIAAA C57BL/6J mouse model assessed as decrease in serum ALT level at 1 mg/kg, po preadministered with 1 to 4 % of alcohol for 10 days with subsequent compound addition from day 6 to 11 and further administered with 31.25 % alcohol on day 11 and measured after 9 hrs by absorbance based plate analyzer; format: functional, organism-based; details: time 5.0 day
[2] = system: Mus musculus; assay: Protection against alcohol-induced motor impairment in C57BL/6J mouse model assessed as increase in distance travelled at 1 mg/kg, po preadministered with compound every 24 hrs for 3 times followed by alcohol administration 30 mins post last dose and further treated with compound for 3 days followed by alcohol administration 30 mins post last dose and measured at 2 to 20 mins by open field test; format: functional, organism-based; details: time 8702-8720 min
[3] = system: Mus musculus; assay: Protection against alcoholic liver disease in NIAAA C57BL/6J mouse model assessed as improvement of liver injury at 1 mg/kg, po preadministered with 1 to 4 % of alcohol for 10 days with subsequent compound addition from day 6 to 11 and further administered with 31.25 % alcohol on day 11 and measured after 9 hrs by H&E staining based light microscopic analysis; format: functional, organism-based; details: time 5.0 day
[4] = Toxicity in ketamine/xylazine-induced anesthetic C57BL/6J mouse model assessed as emetogenic potential by measuring reduction in anesthesia duration at 0.5 to 1 mg/kg, po preadministered with compound for 15 mins followed by ketamine/xylazine administration; format: organism-based; details: in vivo, 0.25 h, dose 0.5-1 mg/kg
[5] = system: Mus musculus; assay: Protection against alcoholic liver disease in NIAAA C57BL/6J mouse model assessed as reduction in serum IL-6 level at 1 mg/kg, po preadministered with 1 to 4 % of alcohol for 10 days with subsequent compound addition from day 6 to 11 and further administered with 31.25 % alcohol on day 11 and measured after 9 hrs by ELISA; format: functional, organism-based; details: time 5.0 day
[6] = system: Mus musculus; assay: Protection against alcoholic liver disease in NIAAA C57BL/6J mouse model assessed as reduction in liver IL-1beta mRNA level at 1 mg/kg, po preadministered with 1 to 4 % of alcohol for 10 days with subsequent compound addition from day 6 to 11 and further administered with 31.25 % alcohol on day 11 and measured after 9 hrs by RT-qPCR analysis; format: functional, organism-based; details: time 5.0 day
[7] = system: Mus musculus; assay: Protection against alcohol use disorder in C57BL/6J mouse model assessed as decrease in alcohol intake at 1 mg/kg, po pre-trained with alcohol and water for 42 days with subsequent compound addition from day 22 to day 42 followed by 3.5 hrs of darkness and compound administration for 30 mins followed by water replacement with alcohol for 4 hrs on day 46 by Drink-in-Dark test; format: functional, organism-based; details: time 23.0 day
[8] = system: Mus musculus; assay: Protection against alcohol-induced motor impairment in C57BL/6J mouse model assessed as decrease in resting time at 1 mg/kg, po preadministered with compound every 24 hrs for 3 times followed by alcohol administration 30 mins post last dose and further treated with compound for 3 days followed by alcohol administration 30 mins post last dose and measured at 2 to 20 mins by open field test; format: functional, organism-based; details: time 8702-8720 min
[9] = system: Mus musculus; assay: Protection against alcoholic liver disease in NIAAA C57BL/6J mouse model assessed as reduction in liver TNF-alpha mRNA level at 1 mg/kg, po preadministered with 1 to 4 % of alcohol for 10 days with subsequent compound addition from day 6 to 11 and further administered with 31.25 % alcohol on day 11 and measured after 9 hrs by RT-qPCR analysis; format: functional, organism-based; details: time 5.0 day
[10] = system: Mus musculus; assay: Protection against alcohol exposure-induced anxiety like behavior in C57BL/6J mouse model assessed as distance travelled at 1 mg/kg, po pre-trained with alcohol and water for 42 days with subsequent compound addition from day 22 to day 42 followed by 3.5 hrs of darkness and compound administration for 30 mins followed by water replacement with alcohol for 4 hrs and measured 24 hrs after alcohol withdrawal by open field test; format: functional, organism-based
[11] = target: T1, 3',5'-cyclic-AMP phosphodiesterase 4D (Homo sapiens, UniProt Q08499); assay: Inhibition of PDE4D7 (unknown origin) using FAM-cyclic-3',5'-AMP as substrate at 1 microM incubated for 1 hrs by fluorescence polarization based IMAP assay relative to control
[12] = system: Mus musculus; assay: Protection against alcohol-induced motor impairment in C57BL/6J mouse model assessed as short recovery time by measuring latency to falling off at 1 mg/kg, po preadministered with compound every 24 hrs for 3 times followed by alcohol administration 30 mins post last dose and further treated with compound for 3 days followed by alcohol administration 30 mins post last dose and measured at 2 to 20 mins by rotarod test; format: functional, organism-based; details: time 8702-8720 min
[13] = system: Mus musculus; assay: Protection against alcoholic liver disease in NIAAA C57BL/6J mouse model assessed as improvement of liver injury at 1 mg/kg, po preadministered with 1 to 4 % of alcohol for 10 days with subsequent compound addition from day 6 to 11 and further administered with 31.25 % alcohol on day 11 and measured after 9 hrs by Oil Red O staining based light microscopic analysis; format: functional, organism-based; details: time 5.0 day
[14] = system: Mus musculus; assay: Protection against alcohol-induced sedation in C57BL/6J mouse model assessed as reduction in sleep time at 1 mg/kg, po preadministered with compound every 24 hrs for 3 times followed by alcohol administration 30 mins post last dose; format: functional, organism-based; details: time 72.5 hrs
[15] = system: Mus musculus; assay: Protection against alcoholic liver disease in NIAAA C57BL/6J mouse model assessed as decrease in liver index at 1 mg/kg, po preadministered with 1 to 4 % of alcohol for 10 days with subsequent compound addition from day 6 to 11 and further administered with 31.25 % alcohol on day 11 and measured after 9 hrs; format: functional, organism-based; details: time 5.0 day
[16] = target: T1, 3',5'-cyclic-AMP phosphodiesterase 4D; assay: Inhibition of PDE4D7 (unknown origin) using FAM-cyclic-3',5'-AMP as substrate at 100 nM incubated for 1 hrs by fluorescence polarization based IMAP assay relative to control
[17] = system: Mus musculus; assay: Protection against alcoholic liver disease in NIAAA C57BL/6J mouse model assessed as reduction in liver IL-6 mRNA level at 1 mg/kg, po preadministered with 1 to 4 % of alcohol for 10 days with subsequent compound addition from day 6 to 11 and further administered with 31.25 % alcohol on day 11 and measured after 9 hrs by RT-qPCR analysis; format: functional, organism-based; details: time 5.0 day
[18] = system: Mus musculus; assay: Protection against alcohol exposure-induced anxiety like behavior in C57BL/6J mouse model assessed as increase in center time at 1 mg/kg, po pre-trained with alcohol and water for 42 days with subsequent compound addition from day 22 to day 42 followed by 3.5 hrs of darkness and compound administration for 30 mins followed by water replacement with alcohol for 4 hrs and measured 24 hrs after alcohol withdrawal by open field test; format: functional, organism-based
[19] = system: Mus musculus; assay: Protection against alcohol use disorder in C57BL/6J mouse model assessed as decrease in alcohol intake at 1 mg/kg, po pre-trained with alcohol and water for 42 days with subsequent compound addition on day 22 and measured after 3 weeks by two-bottle choice test; format: functional, organism-based
[20] = system: Mus musculus; assay: Protection against alcoholic liver disease in NIAAA C57BL/6J mouse model assessed as improvement of steatosis at 1 mg/kg, po preadministered with 1 to 4 % of alcohol for 10 days with subsequent compound addition from day 6 to 11 and further administered with 31.25 % alcohol on day 11 and measured after 9 hrs by H&E staining based light microscopic analysis; format: functional, organism-based; details: time 5.0 day
[21] = system: Mus musculus; assay: Protection against alcoholic liver disease in NIAAA C57BL/6J mouse model assessed as improvement of steatosis at 1 mg/kg, po preadministered with 1 to 4 % of alcohol for 10 days with subsequent compound addition from day 6 to 11 and further administered with 31.25 % alcohol on day 11 and measured after 9 hrs by Oil Red O staining based light microscopic analysis; format: functional, organism-based; details: time 5.0 day
[22] = system: Mus musculus; assay: Protection against alcohol use disorder in C57BL/6J mouse model assessed as decrease in alcohol preference at 1 mg/kg, po pre-trained with alcohol and water for 42 days with subsequent compound addition on day 22 and measured after 3 weeks by two-bottle choice test; format: functional, organism-based
[23] = system: Mus musculus; assay: Protection against alcoholic liver disease in NIAAA C57BL/6J mouse model assessed as reduction in serum TNF-alpha level at 1 mg/kg, po preadministered with 1 to 4 % of alcohol for 10 days with subsequent compound addition from day 6 to 11 and further administered with 31.25 % alcohol on day 11 and measured after 9 hrs by ELISA; format: functional, organism-based; details: time 5.0 day
[24] = system: Mus musculus; assay: Protection against alcohol-induced motor impairment in C57BL/6J mouse model assessed as recovery of average speed at 1 mg/kg, po preadministered with compound every 24 hrs for 3 times followed by alcohol administration 30 mins post last dose and further treated with compound for 3 days followed by alcohol administration 30 mins post last dose and measured at 2 to 20 mins by open field test; format: functional, organism-based; details: time 8702-8720 min
[25] = system: Mus musculus; assay: Protection against alcoholic liver disease in NIAAA C57BL/6J mouse model assessed as decrease in serum AST level at 1 mg/kg, po preadministered with 1 to 4 % of alcohol for 10 days with subsequent compound addition from day 6 to 11 and further administered with 31.25 % alcohol on day 11 and measured after 9 hrs by absorbance based plate analyzer; format: functional, organism-based; details: time 5.0 day

T1 sequence (Q08499 whole entry): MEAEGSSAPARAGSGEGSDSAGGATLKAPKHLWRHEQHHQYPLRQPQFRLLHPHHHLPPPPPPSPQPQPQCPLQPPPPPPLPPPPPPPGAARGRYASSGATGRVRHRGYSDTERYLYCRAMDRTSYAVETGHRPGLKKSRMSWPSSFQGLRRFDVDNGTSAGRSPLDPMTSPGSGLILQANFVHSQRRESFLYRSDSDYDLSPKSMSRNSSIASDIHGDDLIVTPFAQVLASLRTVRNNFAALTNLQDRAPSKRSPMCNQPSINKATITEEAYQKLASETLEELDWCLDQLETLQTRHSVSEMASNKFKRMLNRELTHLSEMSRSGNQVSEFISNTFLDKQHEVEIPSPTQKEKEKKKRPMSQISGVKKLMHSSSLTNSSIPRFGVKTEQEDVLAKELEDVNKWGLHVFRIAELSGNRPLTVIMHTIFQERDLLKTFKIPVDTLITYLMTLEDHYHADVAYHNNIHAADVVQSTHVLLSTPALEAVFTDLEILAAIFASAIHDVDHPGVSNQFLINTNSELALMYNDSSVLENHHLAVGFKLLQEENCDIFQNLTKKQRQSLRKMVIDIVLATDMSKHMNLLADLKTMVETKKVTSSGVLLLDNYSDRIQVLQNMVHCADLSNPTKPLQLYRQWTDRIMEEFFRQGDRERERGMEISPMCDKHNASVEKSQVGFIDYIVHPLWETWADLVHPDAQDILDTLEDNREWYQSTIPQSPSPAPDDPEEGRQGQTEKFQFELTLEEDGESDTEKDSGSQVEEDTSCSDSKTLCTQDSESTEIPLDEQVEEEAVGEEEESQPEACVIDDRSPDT

## COc1ccc(C2CNC(=O)C2)cc1OC1CCCC1 (stereo not given) [ROLIPRAM]
[1]
  Activity: Active
[2]
  Activity: Active
[3]
  Activity: Active
[4]
  Activity: Toxic
[5]
  Activity: Active
[6]
  Activity: Active
[7]
  Activity: Active
[8]
  Activity: Active
[9]
  Activity: Active
[10]
  Activity: Active
[11]
  inhibition: 72%
[12]
  Activity: inactive
[13]
  Activity: Active
[14]
  Activity: inactive
[15]
  Activity: Active
[16]
  inhibition: 34%
[17]
  Activity: Active
[18]
  Activity: Active
[19]
  Activity: Active
[20]
  Activity: Active
[21]
  Activity: Active
[22]
  Activity: Active
[23]
  Activity: Active
[24]
  Activity: Active
[25]
  Activity: Active
